In ChEMBL document CHEMBL4130497, “Fragment-based approach to identify IDO1 inhibitor building blocks” (Eur J Med Chem, 2017):

What was measured:
[1] = target: Indoleamine 2,3-dioxygenase 1 (Homo sapiens, UniProt P14902); assay: Binding affinity to NT647 dye labeled recombinant human IDO1 (1 to 403 residues) by microscale thermophoresis method
[2] = Dissociation constant, pKa of the compound; assay type: physicochemical
[3] = Lipophilicity, log P of the compound in n1-octanol and water by pH-metric assay; assay type: physicochemical; settings: n-octanol/water
[4] = target: Indoleamine 2,3-dioxygenase 1 (Mus musculus) (UniProt P28776); assay: Inhibition of mouse IDO1 expressed in mouse P1.HTR cells assessed as reduction in kynurenine production from L-Trp incubated for 16 hrs by HPLC method; assay type: cell-based
Chain of Indoleamine 2,3-dioxygenase 1 (Mus musculus) (P28776 whole entry, looked up): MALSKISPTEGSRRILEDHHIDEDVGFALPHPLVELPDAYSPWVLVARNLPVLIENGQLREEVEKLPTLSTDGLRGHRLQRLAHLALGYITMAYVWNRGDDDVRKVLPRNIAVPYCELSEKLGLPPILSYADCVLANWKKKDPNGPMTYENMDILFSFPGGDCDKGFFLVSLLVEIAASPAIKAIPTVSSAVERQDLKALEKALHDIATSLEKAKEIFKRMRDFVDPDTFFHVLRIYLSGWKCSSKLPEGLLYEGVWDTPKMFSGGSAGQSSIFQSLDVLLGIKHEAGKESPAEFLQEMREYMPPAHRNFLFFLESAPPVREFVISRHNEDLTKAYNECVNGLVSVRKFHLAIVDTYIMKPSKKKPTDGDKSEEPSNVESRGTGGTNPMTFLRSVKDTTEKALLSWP

Chain of Indoleamine 2,3-dioxygenase 1 (P14902 whole entry, the tested form may be a part): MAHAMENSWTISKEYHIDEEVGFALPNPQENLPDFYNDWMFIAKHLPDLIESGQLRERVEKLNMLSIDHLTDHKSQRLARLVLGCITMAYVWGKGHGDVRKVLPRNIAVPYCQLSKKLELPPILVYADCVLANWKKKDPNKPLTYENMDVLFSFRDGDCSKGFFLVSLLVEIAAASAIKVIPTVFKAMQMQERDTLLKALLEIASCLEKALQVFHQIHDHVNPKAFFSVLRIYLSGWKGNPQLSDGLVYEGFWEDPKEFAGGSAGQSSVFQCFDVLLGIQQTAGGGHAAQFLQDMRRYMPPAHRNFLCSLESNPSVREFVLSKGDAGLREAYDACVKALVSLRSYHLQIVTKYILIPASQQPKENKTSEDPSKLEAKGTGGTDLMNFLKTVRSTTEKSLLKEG

Kd [1]	Structure (SMILES)	further results
> 1000 µM	NC(=O)CN1CCN(c2cccc3ccccc23)C(=O)C1=O	
96.7 µM	Cc1c(C)n(CC(O)CN2CCNCC2)c2ccccc12 (stereo not given)	
> 1000 µM	COc1ccccc1OCC(O)CNC1CCCC1 (stereo not given)	
	OC(CC1c2ccccc2-c2cncn21)C1CCCCC1 (stereo not given)	pKa [2]: 6.7
774 µM	OC(c1nc2ccccc2[nH]1)C(O)c1nc2ccccc2[nH]1 (stereo not given)	
941 µM	NC(S)=NNC(=O)Nc1ccc(Cl)c(Cl)c1	
> 500 µM	COc1ccc(-c2cnc(CN)[nH]2)cc1	
147 µM	O=C(/C=C/N1CCOCC1)c1coc2ccccc12	
> 1000 µM	Cc1ccc(NCCNC(=O)c2c[nH]c3ccccc23)nn1	
> 1000 µM	Cc1ccc(NCCNC(=O)c2cccc(Cl)c2)nn1	
> 1000 µM	NCC(O)c1cccc2ccccc12 (stereo not given)	
237 µM	O=C1CC(NC(=O)Cn2ccc3ccccc32)CN1 (stereo not given)	
86.8 µM	COc1ccccc1OCC(O)Cn1cnc2ccccc21 (stereo not given)	
> 1000 µM	NCC(O)COCC1COc2ccccc2O1 (stereo not given)	
33.5 µM	CCc1cccc2sc(NCCN3CCOCC3)nc12	logP [3]: 2.3; pKa [2]: 3.1 to 6.2
17.8 µM	N=C(N)Sc1c[nH]c2ccccc12	logP [3]: 1.8; pKa [2]: 9.5; fold change (FC) [4]: < 0.6
53.7 µM	O=S(=O)(NCc1cccnc1)c1ccc2ccccc2c1	logP [3]: 2.5; pKa [2]: 4.8 to 10.3
61.5 µM	NC(=O)c1csc(NC(=O)Cc2c[nH]c3ccccc23)c1	
240 µM	O=C(NCCn1ncccc1=O)c1ccc2ccccc2c1	
169 µM	COC(=O)C(N)c1ccc2ccccc2c1 (stereo not given)	

Structure (SMILES)	Kd [1]	further results
NCC(O)c1cc(Cl)cc(Cl)c1 (stereo not given)	> 1000 µM	
NCCc1nc2ccc(F)cc2[nH]1	548 µM	
Cn1cc(C(O)CN)c2ccccc21 (stereo not given)	97 µM	
